Data reported in PubChem BioAssay (NCI).
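Briefly, cells in 96-well plates were exposed to five compound concentrations for 48 h, and endpoints were estimated by linear interpolation. GI50 is the concentration that inhibits growth by half. TGI: concentration producing complete growth inhibition.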

Columns and labels:
Test in all cases: NCI tumour cell line growth inhibition, 48 h
786-0 renal = system: 786-0 renal
SK-MEL-2 melanoma = system: SK-MEL-2 melanoma
M14 melanoma = system: M14 melanoma
NCI/ADR-RES ovarian = system: NCI/ADR-RES ovarian
K-562 leukemia = system: K-562 leukemia
MOLT-4 leukemia = system: MOLT-4 leukemia
SNB-19 CNS = system: SNB-19 CNS
IGROV1 ovarian = system: IGROV1 ovarian
RPMI-8226 leukemia = system: RPMI-8226 leukemia
A498 renal = system: A498 renal
MCF7 breast = system: MCF7 breast
HL-60(TB) leukemia = system: HL-60(TB) leukemia
A549 NSCLC = system: A549 NSCLC
HOP-62 NSCLC = system: HOP-62 NSCLC
NCI-H23 lung = system: NCI-H23 lung
OVCAR-5 ovarian = system: OVCAR-5 ovarian
SF-268 CNS = system: SF-268 CNS
SF-295 CNS = system: SF-295 CNS
DU-145 prostate = system: DU-145 prostate
HCC-2998 colon = system: HCC-2998 colon
SK-OV-3 ovarian = system: SK-OV-3 ovarian
HCT-116 colon = system: HCT-116 colon
UO-31 renal = system: UO-31 renal
NCI-H226 lung = system: NCI-H226 lung
BT-549 breast = system: BT-549 breast
LOX IMVI melanoma = system: LOX IMVI melanoma
UACC-257 melanoma = system: UACC-257 melanoma
SW-620 colon = system: SW-620 colon
UACC-62 melanoma = system: UACC-62 melanoma
OVCAR-3 ovarian = system: OVCAR-3 ovarian
SNB-75 CNS = system: SNB-75 CNS
U251 CNS = system: U251 CNS
SK-MEL-28 melanoma = system: SK-MEL-28 melanoma
HCT-15 colon = system: HCT-15 colon
T-47D breast = system: T-47D breast
MALME-3M melanoma = system: MALME-3M melanoma
HS 578T breast = system: HS 578T breast
CAKI-1 renal = system: CAKI-1 renal
OVCAR-4 ovarian = system: OVCAR-4 ovarian
KM12 colon = system: KM12 colon
COLO 205 colon = system: COLO 205 colon
PC-3 prostate = system: PC-3 prostate
NCI-H460 lung = system: NCI-H460 lung
SF-539 CNS = system: SF-539 CNS
SK-MEL-5 melanoma = system: SK-MEL-5 melanoma
SN12C renal = system: SN12C renal
CCRF-CEM leukemia = system: CCRF-CEM leukemia
MDA-MB-231 breast = system: MDA-MB-231 breast
ACHN renal = system: ACHN renal
MDA-MB-468 breast = system: MDA-MB-468 breast
HOP-92 NSCLC = system: HOP-92 NSCLC
NCI-H522 lung = system: NCI-H522 lung
TK-10 renal = system: TK-10 renal
OVCAR-8 ovarian = system: OVCAR-8 ovarian
EKVX NSCLC = system: EKVX NSCLC
HT29 colon = system: HT29 colon
MDA-MB-435 = system: MDA-MB-435
RXF 393 renal = system: RXF 393 renal

For `COc1ccc(-c2nc3cc(C)ccc3n2CC(=O)N=Nc2c(O)[nH]c3ccc(Br)cc23)cc1`, the GI50 (786-0 renal) was 3.48 µM, the TGI (786-0 renal) was 16.6 µM and the GI50 (SK-MEL-2 melanoma) was 3.28 µM. The TGI (SK-MEL-2 melanoma) was 18.6 µM, the GI50 (M14 melanoma) was 1.6 µM and the TGI (M14 melanoma) was 3.49 µM. The GI50 (NCI/ADR-RES ovarian) was 1.88 µM, the TGI (NCI/ADR-RES ovarian) was 5 µM and the GI50 (K-562 leukemia) was 3.66 µM. The TGI (K-562 leukemia) was over 84.5 µM, the GI50 (MOLT-4 leukemia) was 3.22 µM and the TGI (MOLT-4 leukemia) was 44.5 µM. It also gave a GI50 (SNB-19 CNS) of 3.14 µM, a TGI (SNB-19 CNS) of 49.6 µM and a GI50 (IGROV1 ovarian) of 2.93 µM. The TGI (IGROV1 ovarian) was 18.2 µM, the GI50 (RPMI-8226 leukemia) was 2.98 µM and the TGI (RPMI-8226 leukemia) was 42.2 µM. For the same molecule, the GI50 (A498 renal) was 24.9 µM, the TGI (A498 renal) was 60.1 µM and the GI50 (MCF7 breast) was 2.23 µM. The TGI (MCF7 breast) was 10.2 µM, the GI50 (HL-60(TB) leukemia) was 5.51 µM and the TGI (HL-60(TB) leukemia) was over 84.5 µM. For the same molecule, the GI50 (A549 NSCLC) was 1.75 µM, the TGI (A549 NSCLC) was 3.95 µM and the GI50 (HOP-62 NSCLC) was 2.31 µM. For the same molecule, the TGI (HOP-62 NSCLC) was 9.66 µM, the GI50 (NCI-H23 lung) was 1.93 µM and the TGI (NCI-H23 lung) was 5.88 µM. For the same molecule, the GI50 (OVCAR-5 ovarian) was 2.56 µM, the TGI (OVCAR-5 ovarian) was 13.6 µM and the GI50 (SF-268 CNS) was 2.94 µM. It also gave a TGI (SF-268 CNS) of 31.7 µM, a GI50 (SF-295 CNS) of 2.93 µM and a TGI (SF-295 CNS) of 14.2 µM. It also gave a GI50 (DU-145 prostate) of 3.29 µM, a TGI (DU-145 prostate) of 16.1 µM and a GI50 (HCC-2998 colon) of 2.75 µM. For the same molecule, the TGI (HCC-2998 colon) was 16.4 µM, the GI50 (SK-OV-3 ovarian) was 3.92 µM and the TGI (SK-OV-3 ovarian) was 38.3 µM. For the same molecule, the GI50 (HCT-116 colon) was 1.88 µM, the TGI (HCT-116 colon) was 4.49 µM and the GI50 (UO-31 renal) was 19.4 µM. For the same molecule, the TGI (UO-31 renal) was over 84.5 µM, the GI50 (NCI-H226 lung) was 1.97 µM and the TGI (NCI-H226 lung) was 7.23 µM. The GI50 (BT-549 breast) was 2.05 µM, the TGI (BT-549 breast) was 5.92 µM and the GI50 (LOX IMVI melanoma) was 1.48 µM. For the same molecule, the TGI (LOX IMVI melanoma) was 3.29 µM, the GI50 (UACC-257 melanoma) was 1.95 µM and the TGI (UACC-257 melanoma) was 6.33 µM. For the same molecule, the GI50 (SW-620 colon) was 2.4 µM, the TGI (SW-620 colon) was 9.15 µM and the GI50 (UACC-62 melanoma) was 1.78 µM. The TGI (UACC-62 melanoma) was 6.09 µM, the GI50 (OVCAR-3 ovarian) was 1.93 µM and the TGI (OVCAR-3 ovarian) was 4.29 µM. The GI50 (SNB-75 CNS) was 1.61 µM, the TGI (SNB-75 CNS) was 12.7 µM and the GI50 (U251 CNS) was 1.64 µM. The TGI (U251 CNS) was 3.55 µM, the GI50 (SK-MEL-28 melanoma) was 1.51 µM and the TGI (SK-MEL-28 melanoma) was 2.96 µM. It also gave a GI50 (HCT-15 colon) of 2.83 µM, a TGI (HCT-15 colon) of 16.9 µM and a GI50 (T-47D breast) of 2.85 µM. The TGI (T-47D breast) was 34.6 µM, the GI50 (MALME-3M melanoma) was 1.59 µM and the TGI (MALME-3M melanoma) was 3.2 µM. It also gave a GI50 (HS 578T breast) of 1.96 µM, a TGI (HS 578T breast) of 6.44 µM and a GI50 (CAKI-1 renal) of 3.6 µM. For the same molecule, the TGI (CAKI-1 renal) was 29.1 µM, the GI50 (OVCAR-4 ovarian) was 2.76 µM and the TGI (OVCAR-4 ovarian) was 11.2 µM. The GI50 (KM12 colon) was 2.81 µM, the TGI (KM12 colon) was 16 µM and the GI50 (COLO 205 colon) was 2.29 µM. It also gave a TGI (COLO 205 colon) of 8.06 µM, a GI50 (PC-3 prostate) of 2.07 µM and a TGI (PC-3 prostate) of 14.5 µM. The GI50 (NCI-H460 lung) was 1.86 µM, the TGI (NCI-H460 lung) was 4.1 µM and the GI50 (SF-539 CNS) was 1.55 µM. For the same molecule, the TGI (SF-539 CNS) was 3.36 µM, the GI50 (SK-MEL-5 melanoma) was 2.59 µM and the TGI (SK-MEL-5 melanoma) was 8.3 µM. For the same molecule, the GI50 (SN12C renal) was 2.16 µM, the TGI (SN12C renal) was 10.6 µM and the GI50 (CCRF-CEM leukemia) was 3.05 µM. The TGI (CCRF-CEM leukemia) was 32.1 µM, the GI50 (MDA-MB-231 breast) was 2.17 µM and the TGI (MDA-MB-231 breast) was 7.97 µM. It also gave a GI50 (ACHN renal) of 2.38 µM, a TGI (ACHN renal) of 8.75 µM and a GI50 (MDA-MB-468 breast) of 1.88 µM. It also gave a TGI (MDA-MB-468 breast) of 4.41 µM, a GI50 (HOP-92 NSCLC) of 1.34 µM and a TGI (HOP-92 NSCLC) of 4.59 µM. The GI50 (NCI-H522 lung) was 7.39 µM, the TGI (NCI-H522 lung) was 31.1 µM and the GI50 (TK-10 renal) was 3.63 µM. For the same molecule, the TGI (TK-10 renal) was 20.6 µM, the GI50 (OVCAR-8 ovarian) was 1.58 µM and the TGI (OVCAR-8 ovarian) was 3.49 µM. The GI50 (EKVX NSCLC) was 2.1 µM, the TGI (EKVX NSCLC) was 11.2 µM and the GI50 (HT29 colon) was 1.98 µM. For the same molecule, the TGI (HT29 colon) was 4.36 µM, the GI50 (MDA-MB-435) was 2.12 µM and the TGI (MDA-MB-435) was 7.52 µM. It also gave a GI50 (RXF 393 renal) of 1.33 µM and a TGI (RXF 393 renal) of 3.54 µM.
